{"source": "paper PMC11547513", "about": "“Design, Synthesis and Biological Activity Evaluation of β-Carboline Derivatives Containing Nitrogen Heterocycles” (Molecules, 2024)", "key": {"[1]": {"test_system": "Hek-293T (human embryonic kidney cells)", "assay": "MTT assay, in vitro cytotoxicity on normal Hek-293T", "conditions": "read-out: Inhibitory Activity/% at 10 μM, Hek-293T", "source_text": "(§5) Cells were purchased from the Cell Bank of the Chinese Academy of Sciences (Kunming, China)."}, "[2]": {"assay": "Observation of water solubility / precipitation during the cell experiments", "conditions": "during antitumor activity measurement"}, "[3]": {"test_system": "PC-3 (human prostate cancer cell)", "assay": "MTT assay, in vitro cytotoxicity on PC-3", "source_text": "as §5"}, "[4]": {"test_system": "T47D (human breast cancer cell)", "assay": "MTT assay, in vitro cytotoxicity on T47D", "conditions": "for IC50: read-out: IC50 (Mean ± S.D.), T47D", "source_text": "as §5"}, "[5]": {"test_system": "K562 (human chronic myeloid leukemia cell)", "assay": "MTT assay, in vitro cytotoxicity on K562", "conditions": "Homo sapiens; for inhibition at 10 µM: K562, read-out: Inhibitory Activity/% at 10 μM, K562", "source_text": "as §5"}, "[6]": {"test_system": "A549 (human lung cancer cell)", "assay": "MTT assay, in vitro cytotoxicity on A549", "conditions": "for IC50: A549, read-out: IC50 (Mean ± S.D.), A549", "source_text": "as §5"}, "PC-3 cells [7]": {"test_system": "PC-3 cells", "assay": "Wound healing assay", "type": "cell-based, human", "conditions": "30 μM, 24 h; control group 46.41%", "description": "Given that cell migration plays a pivotal role in tumor cell invasion, to further validate the impact of compound 8q on PC-3 cell motility, a wound healing assay was conducted. […] These findings underscore the potent inhibitory effect of compound 8q on the motility of PC-3 cells. […]\n(§1) a wound healing assay was performed using the method we previously reported1. In short, PC-3 cells were seeded in a six-well plate at a density of 10 × 105 and incubated at a constant temperature of 37 ℃ and 5% CO2 for 24 h. Then the pipette tip was used to create a uniform wound on the surface of cells. Subsequently, after cleaning twice with PBS, the scratch healing of the 8q treatment group and the positive drug treatment […]\n(§2) was used to measure and quantify cell migration. […]"}, "PC-3 cells [8]": {"test_system": "PC-3 cells", "assay": "Annexin V-FITC/PI apoptosis, flow cytometry", "type": "cell-based, human", "conditions": "30 μM", "from_the_text": "(§3) Apoptosis is an important target for antitumor therapy. To explore the antitumor mechanism of compound 8q, cell apoptosis was detected using flow cytometry. […] Moreover, reactive oxygen species (ROS) play a significant role in cell growth, differentiation and apoptosis. Excessive ROS can cause oxidative damage and lead to cell apoptosis. […]\n2.3.The effect of compound 8q on cell apoptosis\nWe used Annexin V-FITC/ PI double staining to evaluate cellular apoptosis via flow cytometry to figure out if apoptosis participates in the inhibition of cell growth.\nPC-3 cells were seeded in a six-well plate at a density of 3 × 105, and cultured at 37 ℃ and 5% CO2 for 24 h before adding 10 μM. 20 μM and 30 μM compound 8q and 30 μM Harmine to each well. After 48 h, the cells were collected and stained and incubated flowing the manufacturer ’s protocol of the Annexin V-FITC/PI Apoptosis Detection Kit (Solarbio, Beijing, China). After completion, the cells were immediately detected on the Flow Cytometry (Solarbio, Beijing, China). The experimental results were processed using Flow Jo and Prism 7.04 software. […]"}, "PC-3 cells [9]": {"test_system": "PC-3 cells", "assay": "Cell cycle assay (PI, flow cytometry)", "type": "cell-based, human", "conditions": "30 μM, 24 h", "description": "To analyze the effect of compound 8q on cell cycle, the cycle of PC-3 cells was detected after being treated with compound 8q for 24 h (Figure 5). […] In addition, Cyclin D1, a cell cycle-related protein, is a key regulator of cycle progression, mainly regulating G1/S phase transition. […] In summary, compound 8q can arrest cells in the G0/G1 phase. […]\n2.5. Cell cycle arrest of compound 8q on PC-3\nTo determine the effect of compound 8q on the cell cycle distribution of PC-3 cell, we used our previous method with slight modifications2. Briefly, cells were incubated in a six-well plate with a density of 3 × 105 at 37 ℃ and 5% CO2 for 24 h, followed by the addition of different concentrations of compound 8q for further incubation for 24 h.\nNext, the cells were collected and washed twice with PBS. 75% anhydrous ethanol was used to immobilize the cells under overnight conditions at 4 ℃. Subsequently, PBS washed cells, and RNase from the cell cycle assay kit (Solarbio, Beijing, China) was added and incubated in a constant temperature (37 ℃) water bath for 30 min. Then PI was added under dark conditions and incubated at 4 ℃ for another half hour to detect.\n(§4) The distribution of cycles was analyzed by Flow Jo and Prism 7.04 software. […]"}, "PC-3 cells [10]": {"test_system": "PC-3 cells", "assay": "Intracellular ROS assay (DCFH-DA, flow cytometry)", "type": "cell-based, human", "conditions": "30 μM, 24 h; negative control MFI 19.8", "description": "as §3, §1, §2\nPC-3 cells were seeded in a six-well plate at a density of 3 × 105, and cultured at 37 ℃ and 5% CO2 for 24 h before adding 10 μM. […] After completion, the cells were immediately detected on the Flow Cytometry (Solarbio, Beijing, China). […]\nat 37 ° C for 20 min. Subsequently, the staining solution was wash off with basic culture medium and detected the fluorescence intensity using the flow cytometer. The data was analyzed and obtained through Flow Jo and Prism 7.04 software. […]\nas §4"}}, "note": "Like-named read-outs stand apart in the source and are kept apart here.", "data": [{"compound": "COc1cc(-c2nc(-c3nnc(SCC(=O)N4CCN(c5ncccn5)CC4)o3)cc3c2[nH]c2ccccc23)cc(OC)c1OC", "note": "[Compound 8g]", "values": [{"measurement": "inhibition at 10 µM", "setting": "[1]", "result": "29 ± 4.56", "unit": "%"}, {"measurement": "Precipitation observed under microscopy", "setting": "[2]", "result": "precipitate crystals"}, {"measurement": "IC50", "setting": "[3]; Homo sapiens, read-out: IC50 (Mean ± S.D.), PC-3, average of three replicates", "result": "< 10", "unit": "µM"}, {"measurement": "inhibition at 10 µM", "setting": "[3]; Homo sapiens, read-out: Inhibitory Activity/% at 10 μM, PC-3, Table 2 (8 series), 10 μM, average of three replicates, \"/\" means no anticancer activity", "result": "45.4 ± 0.82", "unit": "%"}, {"measurement": "IC50", "setting": "[3]; read-out: IC50 (Mean ± S.D.), PC-3, average of three replicates", "result": "9.56 ± 1.43", "unit": "µM"}, {"measurement": "IC50", "setting": "[4]", "result": "> 40", "unit": "µM"}, {"measurement": "inhibition at 10 µM", "setting": "[4]; read-out: Inhibitory Activity/% at 10 μM, T47D", "result": "40.6 ± 4.48", "unit": "%"}, {"measurement": "IC50", "setting": "[5]; K562, read-out: IC50 (Mean ± S.D.), K562, average of three replicates", "result": "> 40", "unit": "µM"}, {"measurement": "inhibition at 10 µM", "setting": "[5]", "result": "6.38 ± 0.52", "unit": "%"}, {"measurement": "IC50", "setting": "[6]", "result": "> 40", "unit": "µM"}, {"measurement": "inhibition at 10 µM", "setting": "[6]; A549, read-out: Inhibitory Activity/% at 10 μM, A549", "result": "35.8 ± 1.17", "unit": "%"}]}, {"compound": "COc1ccc2c(c1)[nH]c1c(C)nccc12", "note": "[Harmine, reference compound]", "values": [{"measurement": "inhibition at 10 µM", "setting": "[1]", "result": "29.1 ± 3.19", "unit": "%"}, {"measurement": "IC50", "setting": "[3]; Homo sapiens, read-out: IC50 (Mean ± S.D.), PC-3", "result": "24.4 ± 4.45", "unit": "µM"}, {"measurement": "inhibition at 10 µM", "setting": "[3]; Homo sapiens, read-out: Inhibitory Activity/% at 10 μM, PC-3", "result": "14.5 ± 1.42", "unit": "%"}, {"measurement": "Migration rate of PC-3 cells", "setting": "PC-3 cells [7]", "result": 21.51, "unit": "%"}, {"measurement": "IC50", "setting": "[4]", "result": "38.5 ± 1.17", "unit": "µM"}, {"measurement": "inhibition at 10 µM", "setting": "[4]; read-out: Inhibitory Activity/% at 10 μM, T47D, Table 1 (7 series), 10 μM, average of three replicates, \"/\" means no anticancer activity", "result": "51.3 ± 4.58", "unit": "%"}, {"measurement": "inhibition at 10 µM", "setting": "[4]; read-out: Inhibitory Activity/% at 10 μM, T47D, Table 2 (8 series), 10 μM, average of three replicates, \"/\" means no anticancer activity", "result": "48.8 ± 2.37", "unit": "%"}, {"measurement": "IC50", "setting": "[5]; K562, read-out: IC50 (Mean ± S.D.), K562", "result": "15.7 ± 2.27", "unit": "µM"}, {"measurement": "inhibition at 10 µM", "setting": "[5]", "result": "36 ± 2.77", "unit": "%"}, {"measurement": "Total apoptosis rate in PC-3 cells", "setting": "PC-3 cells [8]; 48 h", "result": 65.96, "unit": "%"}, {"measurement": "Annexin V-FITC/PI flow cytometry quadrant Q1", "setting": "PC-3 cells [8]; Figure 4A", "result": 0.21}, {"measurement": "Annexin V-FITC/PI flow cytometry quadrant Q2", "setting": "PC-3 cells [8]; Figure 4A", "result": 35.4}, {"measurement": "Annexin V-FITC/PI flow cytometry quadrant Q3", "setting": "PC-3 cells [8]; Figure 4A", "result": 34.2}, {"measurement": "Annexin V-FITC/PI flow cytometry quadrant Q4", "setting": "PC-3 cells [8]; Figure 4A", "result": 30.2}, {"measurement": "Cell cycle distribution, S phase", "setting": "PC-3 cells [9]; negative control 20.8%", "result": 26.4, "unit": "%"}, {"measurement": "Cell cycle distribution, G2/M phase", "setting": "PC-3 cells [9]; negative control 23.6%", "result": 49.0, "unit": "%"}, {"measurement": "Cell cycle distribution, G0/G1 phase", "setting": "PC-3 cells [9]; negative control 50.6%", "result": 17.3, "unit": "%"}, {"measurement": "ROS mean fluorescence intensity (MFI) value", "setting": "PC-3 cells [10]", "result": 37.9}, {"measurement": "IC50", "setting": "[6]", "result": "25.9 ± 4.78", "unit": "µM"}, {"measurement": "inhibition at 10 µM", "setting": "[6]; A549, read-out: Inhibitory Activity/% at 10 μM, A549, Table 1 (7 series), 10 μM, average of three replicates, \"/\" means no anticancer activity", "result": "31 ± 2.81", "unit": "%"}, {"measurement": "inhibition at 10 µM", "setting": "[6]; A549, read-out: Inhibitory Activity/% at 10 μM, A549, Table 2 (8 series), 10 μM, average of three replicates, \"/\" means no anticancer activity", "result": "31.2 ± 2.67", "unit": "%"}]}]}
